In patent US9416154B2, “5′-substituted nucleoside derivatives and methods of use thereof for the treatment of viral diseases” (priority 2011, dated 2016):

Key:
[1] = target: HCV NS5B RNA-dependent RNA polymerase (1b-BKΔ55) (Hepatitis C virus genotype 1b (isolate BK) (HCV), UniProt P26663); assay: HCV NS5B polymerase inhibition assay (radiolabeled nucleotide incorporation); assay type: biochemical; conditions: 5 nM NS5B (1b-BKΔ55), [33P]-CTP incorporation, room temperature 1 hour
Method: The ability of the nucleoside triphosphate derivatives to inhibit the enzymatic activity of the HCV NS5B RNA-dependent RNA polymerase was measured in a radiolabeled nucleotide incorporation assay modified from the method described in International Publication No. WO2002/057287. Briefly, 50 μL reactions containing 20 mM HEPES (pH 7.3), 7.5 mM DTT, 20 units/mL RNasIN, 1 μM each of ATP, GTP, UTP and CTP, 20 μCi/mL [^33P]-CTP, 10 mM MgCl2, 60 mM NaCl, 100 μg/ml BSA, 0.021 μM DCoH heteropolymer RNA template and 5 nM NS5B (1b-BKΔ55) enzyme were incubated at room temperature for 1 hour. Assay was terminated by the addition of 500 mM EDTA (50 μL). The reaction mixture was transferred to a Millipore DE81 filter plate and the incorporation of labeled CTP was determined using Packard TopCount. Compound IC50 values were calculated from experiments with 10 serial 3-fold dilutions of the inhibitor in duplicate.

[2] = tested on: HCV replicon (1b); assay: Cell-based HCV replicon assay; conditions: replicon cells, 3-day incubation, replicon RNA by real time PCR (Taqman); read-out: 1b EC50
Method: To measure cell-based anti-HCV activity of selected compounds of the present invention, replicon cells were seeded at 5000 cells/well in 96-well collagen I-coated Nunc plates in the presence of the test compound. Various concentrations of test compound, typically in 10 serial 2-fold dilutions, were added to the assay mixture, with the starting concentration ranging from 250 μM to 1 μM. The final concentration of dimethylsulfoxide was 0.5%, fetal bovine serum was 5%, in the assay media. Cells were harvested on day 3 by the addition of 1× cell lysis buffer (Ambion cat #8721). The replicon RNA level was measured using real time PCR (Taqman assay). The amplicon was located in 5B. The PCR primers were: 5B.2F, ATGGACAGGCGCCCTGA (SEQ ID. NO. 1); 5B.2R, […] (SEQ ID. NO. 2); the probe sequence was FAM-labeled CACGCCATGCGCTGCGG (SEQ ID. NO. 3). GAPDH RNA was used as endogenous control and was amplified in the same reaction as NS5B (multiplex PCR) using primers and VIC-labeled probe recommended by the manufacturer (PE Applied Biosystem). The real-time RT-PCR reactions were run on ABI PRISM 7900HT Sequence Detection System using the following program: 48° C. for 30 minutes, 95° C. for 10 minutes, 40 cycles of 95° C. for 15 sec, 60° C. for 1 minute. The ΔCT values (CT5B-CTGAPDH) were plotted against the concentration of test compound and fitted to the sigmoid dose-response model using XLfit4 (MDL). EC50 was defined as the concentration of inhibitor necessary to achieve ΔCT=1 over the projected baseline; EC90 the concentration necessary to achieve ΔCT=3.2 over the baseline. Alternatively, to quantitate the absolute amount of replicon RNA, a standard curve was established by including serially diluted T7 transcripts of replicon RNA in the Taqman assay. All Taqman reagents were from PE Applied Biosystems. Such an assay procedure was described in detail in e.g. Malcolm et al., Antimicrobial Agents and Chemotherapy 50: 1013-1020 (2006).

[3] = tested on: Huh 7 hepatoma cells containing the subgenomic HCV replicon; assay: Cytotoxicity (MTS assay or GAPDH RNA readout); assay type: cell-based
Method: The effect of the nucleoside derivatives on the proliferation and metabolism of Huh 7 hepatoma cells containing the subgenomic HCV replicon was measured using the MTS assay. Briefly, cells were seeded and dosed with compounds exactly as described in Example 13 above, for replicon EC50 determination. After a 3-day compound incubation period, the MTS assay was performed in accordance with the manufacturer's protocol for the CellTiter 96 Aqueous One Solution Cell Proliferation Assay (Promega, Catalog #G358). Alternatively, after a 3-day compound incubation, the amount of glyceraldehyde-3-phosphate dehydrogenase (GAPDH) RNA in replicon-containing Huh 7 cells was determined using qRT-PCR. CC50 values were derived from 10 serial 2-fold dilutions of the inhibitor in duplicate that yielded 50% inhibition of the MTS or GAPDH RNA readout by comparison with cells treated with vehicle control.

Chain of HCV NS5B RNA-dependent RNA polymerase (1b-BKΔ55) (P26663 2420-2955): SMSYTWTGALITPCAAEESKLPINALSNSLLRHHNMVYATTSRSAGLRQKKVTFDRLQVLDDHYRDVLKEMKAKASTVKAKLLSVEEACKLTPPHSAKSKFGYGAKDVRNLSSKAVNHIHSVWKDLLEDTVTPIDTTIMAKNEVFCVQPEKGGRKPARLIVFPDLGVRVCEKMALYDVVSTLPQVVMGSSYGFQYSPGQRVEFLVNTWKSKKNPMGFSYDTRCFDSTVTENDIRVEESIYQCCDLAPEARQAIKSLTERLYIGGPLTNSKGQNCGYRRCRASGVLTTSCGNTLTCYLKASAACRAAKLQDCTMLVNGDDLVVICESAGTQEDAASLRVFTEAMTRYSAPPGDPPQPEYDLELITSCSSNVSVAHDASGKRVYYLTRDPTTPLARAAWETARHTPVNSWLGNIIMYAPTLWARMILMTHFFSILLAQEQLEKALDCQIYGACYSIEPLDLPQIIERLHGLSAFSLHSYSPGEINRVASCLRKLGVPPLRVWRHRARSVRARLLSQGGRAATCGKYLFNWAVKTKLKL

Compound | IC50 [1] [µM] | EC50 [2] [µM] | CC50 [3] [µM]
C[C@@H](OP(=O)(O)OP(=O)(O)OP(=O)(O)O)[C@H]1O[C@@H](n2ccc3c(N)ncnc32)[C@](C)(O)[C@@H]1O [Compound 36] | 65 | – | –
CC(OP(=O)(O)OP(=O)(O)OP(=O)(O)O)[C@H]1O[C@@H](n2ccc3c(N)ncnc32)[C@](C)(F)[C@@H]1O (some centres unmarked) [Compound 15] | > 20 | – | –
C[C@H](OP(=O)(O)OP(=O)(O)OP(=O)(O)O)[C@H]1O[C@@H](n2ccc3c(N)ncnc32)[C@](C)(O)[C@@H]1O [Compound 37] | 40 | – | –
CCOC(=O)[C@H](C)NP(=O)(Oc1ccccc1)OC(C)[C@H]1O[C@@H](n2ccc3c(N)ncnc32)[C@](C)(F)[C@@H]1O (some centres unmarked) [Compound 16] | – | > 100 | > 100
